Assay results reported in US20250282834A1, “PEPTIDE INHIBITORS FOR CHROMODOMAIN HELICASE DNA BINDING PROTEIN 4 (CHD4)” (THE REGENTS OF THE UNIVERSITY OF CALIFORNIA, priority 2022, published 2025).
Non-standard residues stand in square brackets, D forms with d. Residues, ends and D or L forms follow the SMILES beside them. No end group written: not given here. *: point of attachment. Orn = NCCC[C@H](N)C(=O)O; Cbz = O=C(OCc1ccccc1)*; βAla = NCCC(=O)O; CH2F = FC*

Columns and labels:
[1] = molecular target: T1, CHD4 (Homo sapiens, UniProt Q14839); experiment: CHD4 and LANA protein expression by IFA and western blotting in PEL cells; type: cell-based; conditions: for recovery of full-length CHD4 by inhibitor pretreatment before VGN73: BC3 cells, Z-VAD-FMK 50 μM or bortezomib 25 nM 1 hour, then VGN73 18 μM 8 hours
T1 construct: endogenous in cells; host or cells: BC3, BCBL-1
Protocol: FIG. 3 Effect of VGN73 on CHD4 and LANA protein in tissue culture. FIG. 3. Amount of CHD4 and LANA protein expression was evaluated by IFA. BC3 cells were treated with VGN73 (18 μM) or mutant peptide (18 μM) for 24 hours. Then the cells were stained with the indicated antibodies. The scale is indicated in the panel. Cell volume. CHD4 and LANA signal intensity were compared. **; p<0.01, ***; p<0.001 versus the VGN73 group. FIG. 3b. Amount of CHD4 and LANA protein expression in total cell lysates was evaluated by western blotting. BC3 and BCBL-1 cells were treated with VGN73 at a concentration of IC50 or starved condition for 24 hours. The respective protein band was confirmed by immunoblotting with anti-CHD4 and anti-LANA antibody. FIG. 3c. Evaluating of caspase and proteasome in CHD4 cleavage by VGN73. BC3 cells were pretreated with pan-caspase inhibitor. Z-VAD-FMK (50 μM) or proteasome inhibitor, bortezomib (25 nM) for 1 hour, followed by treated with VGN73 (18 μM) for 8 hours. The respective protein band was confirmed by immunoblotting with anti-CHD4 antibody.
BC3 cells and BCBL-1 cells were treated with VGN73 at the concentration of IC50 for 24 hours. These cells were also treated with VGN73 in media without FBS. To evaluate the effect of VGN73 on CHD4 and LANA proteins in tissue culture, IFA and western blotting were carried out, and these gene expressions were evaluated by RT-qPCR. Moreover, BC3 cells were pretreated with pan-caspase inhibitor, Z-VAD-FMK (50 μM) or proteasome inhibitor, bortezomib (25 nM) for 1 hour, followed by treated with VGN73 (18 μM) for 8 hours. BC3 cells were pretreated with lysosome inhibitor, chloroquine (7.5 μM) for 1 hour, followed by treated with VGN73 (18 μM) for 24 hours. […]
To evaluate subcellular peptide localization, IFA was carried out (FIG. 2d). […] The exposure settings and image acquisition protocols were fixed in each imaging study to enable quantitative analysis. Mean LANA and CHD4 fluorescence (measured in arbitrary units, or A.U.) per cell was subsequently calculated using onboard software and/or NIH Image (FIG. 3a(b)). […]

[2] = tested on: primary effusion lymphoma (PEL) cells (BC3, BCBL-1); type: cell-based
Protocol: FIG. 4 VGN73 inhibits cell growth on various cancer cell types and induces apoptosis and autophagy in BC3 cells. FIG. 4a. MT assays were performed with the indicated cell lines treated with various VGN73 and mutant peptide concentrations for 24 hours. The OD of mock-treated samples were set as 100%, and OD from detergent-treated cells were set as 0%. Mean percentage viability±SD was calculated for each treatment (n=3 samples/treatment). FIG. 4b. VGN73 induces apoptosis. BC3 cells were incubated with of VGN73 (18 μM) for 0, 1, 4, and 24 hours, followed by measurements of percentage apoptosis induction (Annexin V staining) by flow cytometry. Median percentage apoptosis was calculated for each treatment time (n=3 samples/treatment time) (a). […] Cleaved caspase 3 were calculated by normalizing to untreated sample, and untreated sample set as 100% (b). […] Median percentage apoptosis was calculated for each treatment time (n=3 samples/treatment) (a). […] ratios were calculated by normalizing to untreated sample, and untreated sample set as 100% (b). […] Cell viability were determined by MTT assay (n=5 samples/treatment). *; p<0.05. **; p<0.01 versus the control group, #; p<0.05 versus the Z-VAD-FMK group.
The cytotoxic activity of VGN73 and mutant peptide were measured using the MTT assay. […] The optical densities (ODs) were measured at 570 nm with a Benchmark Plus Microplate Spectrophotometer (Bio-Rad). […]

[3] = molecular target: T2, full-length Flag-CHD4 (Homo sapiens, UniProt Q14839); experiment: Biolayer interferometry (BLI) binding kinetics of peptides to CHD4; conditions: N-biotinylated peptides immobilized, sequentially diluted full-length Flag-CHD4
T2 construct: made in house; host or cells: Sf9 (recombinant baculovirus)
Protocol: We next examined peptide binding sites on the CHD4 domain and measured affinity to further confirm the interaction. Multiple CHD4 deletion proteins were expressed and purified from recombinant baculovirus-infected Sf9 cells with Flag-agarose beads (FIG. 7a). An equal molecular amount of recombinant proteins was coated on an ELISA plate and increasing concentrations of biotinylated peptides were incubated. […] Binding affinity to the fill-length CHD4 was also calculated with Bio-Layer Interferometry (BLI). […] The N-biotinylated VGN73 or control peptides were first immobilized on a streptavidin-coated chip, and sequentially diluted full-length Flag-CHD4 proteins were applied. The interaction was then detected with interferometry.
To evaluate of binding kinetics of VGN73 and mutant peptide to CHD4, assays were carried out by biolayer interferometry (BLI) on Octet-Red 384 (ForteBio, CA, USA) at 30° C. with shaking at 1,000 RPM. Streptavidin (SA) tips (Sartorius, Goettingen, Germany) were dipped in 200 μL of biotinylated peptide (VGN73, mutant or TAT) solution (1 μM in 1× kinetic buffer) for the loading step. […] Binding kinetics was evaluated using a 1:1 binding model by ForteBio Data Analysis 8.1 software to obtain the dissociation constant KD.

T1 sequence (Q14839 whole entry): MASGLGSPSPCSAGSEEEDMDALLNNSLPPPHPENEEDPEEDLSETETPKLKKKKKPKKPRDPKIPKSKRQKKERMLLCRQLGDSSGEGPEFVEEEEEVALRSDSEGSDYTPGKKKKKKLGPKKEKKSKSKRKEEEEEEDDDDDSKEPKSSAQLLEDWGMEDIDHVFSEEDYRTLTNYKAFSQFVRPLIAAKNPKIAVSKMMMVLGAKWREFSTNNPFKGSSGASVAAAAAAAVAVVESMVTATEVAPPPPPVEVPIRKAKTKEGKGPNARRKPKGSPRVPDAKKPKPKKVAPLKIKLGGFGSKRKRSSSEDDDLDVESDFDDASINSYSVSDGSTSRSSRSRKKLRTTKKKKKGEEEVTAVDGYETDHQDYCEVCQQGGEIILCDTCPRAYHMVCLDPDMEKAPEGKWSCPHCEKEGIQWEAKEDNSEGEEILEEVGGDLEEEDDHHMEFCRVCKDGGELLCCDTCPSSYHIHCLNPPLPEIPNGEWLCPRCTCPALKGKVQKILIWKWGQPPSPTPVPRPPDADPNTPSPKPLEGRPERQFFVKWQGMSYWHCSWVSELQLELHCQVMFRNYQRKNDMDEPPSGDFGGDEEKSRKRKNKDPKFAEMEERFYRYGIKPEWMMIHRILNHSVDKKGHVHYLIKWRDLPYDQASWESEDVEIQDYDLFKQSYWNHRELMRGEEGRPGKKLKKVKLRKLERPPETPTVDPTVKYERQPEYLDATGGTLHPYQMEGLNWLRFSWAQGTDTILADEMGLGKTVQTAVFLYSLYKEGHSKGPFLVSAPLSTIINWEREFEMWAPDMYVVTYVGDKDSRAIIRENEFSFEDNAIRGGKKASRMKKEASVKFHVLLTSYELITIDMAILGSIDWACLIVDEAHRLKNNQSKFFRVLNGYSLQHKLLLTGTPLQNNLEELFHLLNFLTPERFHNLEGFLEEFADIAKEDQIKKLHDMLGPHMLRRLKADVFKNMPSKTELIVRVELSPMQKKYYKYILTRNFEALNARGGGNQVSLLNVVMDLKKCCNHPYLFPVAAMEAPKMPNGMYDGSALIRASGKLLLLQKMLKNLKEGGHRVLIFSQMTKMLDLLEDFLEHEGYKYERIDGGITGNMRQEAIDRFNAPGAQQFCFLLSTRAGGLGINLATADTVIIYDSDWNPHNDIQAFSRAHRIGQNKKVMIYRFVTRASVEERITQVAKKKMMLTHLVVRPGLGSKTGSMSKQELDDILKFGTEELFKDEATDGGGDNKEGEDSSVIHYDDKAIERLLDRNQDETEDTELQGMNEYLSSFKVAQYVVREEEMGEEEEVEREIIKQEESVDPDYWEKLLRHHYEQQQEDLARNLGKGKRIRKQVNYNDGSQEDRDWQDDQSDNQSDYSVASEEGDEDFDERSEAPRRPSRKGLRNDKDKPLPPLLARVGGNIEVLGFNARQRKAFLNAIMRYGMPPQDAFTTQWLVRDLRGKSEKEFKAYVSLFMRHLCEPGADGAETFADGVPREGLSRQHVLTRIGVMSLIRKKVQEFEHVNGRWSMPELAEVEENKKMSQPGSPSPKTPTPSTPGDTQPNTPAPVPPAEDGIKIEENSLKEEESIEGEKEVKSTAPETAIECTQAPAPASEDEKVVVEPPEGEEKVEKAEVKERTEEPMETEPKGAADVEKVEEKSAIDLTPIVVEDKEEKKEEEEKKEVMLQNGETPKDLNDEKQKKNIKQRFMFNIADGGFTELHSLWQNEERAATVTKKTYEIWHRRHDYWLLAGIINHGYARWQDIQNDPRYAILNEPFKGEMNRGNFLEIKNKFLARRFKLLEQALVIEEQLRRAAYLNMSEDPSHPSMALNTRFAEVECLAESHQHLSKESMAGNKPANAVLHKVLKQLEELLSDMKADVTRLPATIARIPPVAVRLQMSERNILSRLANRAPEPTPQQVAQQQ
T2 sequence (Q14839 whole entry): as above

With “{d-Arg}KKRR{ORN}RRR{β-Ala}AKHAVISAGNDPYGLKK ([dR]KKRR[Orn]RRR[βAla]AKHAVISAGNDPYGLKK) [mutant peptide, mutant peptide with three amino acid changes at conserved amino acids]” as the compound, how does the “CHD4 cleavage (western blotting, total cell lysates)” value ([1]; BC3 and BCBL-1 cells, IC50 concentration, 24 hours) read?
The value was “did not have such effects”.

And the “cancer cell death in vitro tissue culture” value [2]?
The value was “not mutant peptide”.

What about the “binding to CHD4 by BLI” value [3] of the same compound?
Its value is “mutations eliminated the interaction”.

With `COC(=O)C[C@H](NC(=O)[C@H](C)NC(=O)[C@@H](NC(=O)OCc1ccccc1)C(C)C)C(=O)CF` [Z-VAD-FMK] (Cbz-Val-Ala-Asp(OMe)-CH2F) as the compound, how does the “recovery of full-length CHD4 by inhibitor pretreatment before VGN73” value [1] read?
Its value is “recovered full-length CHD4”.

And the “rescue from VGN73 cell death by Z-VAD-FMK pretreatment (MTT)” value ([2]; BC3 and BCBL-1, Z-VAD-FMK 40 μM 1 hr, VGN73 18 or 13 μM)?
Its value is “partially rescued BC3 and BCBL-1 from cell death”.

With `CC(C)C[C@H](NC(=O)[C@H](Cc1ccccc1)NC(=O)c1cnccn1)B(O)O` [proteasome inhibitor, bortezomib] as the compound, how does the “recovery of full-length CHD4 by inhibitor pretreatment before VGN73” value [1] read?
Its value is “not a proteasome inhibitor”.

Which “binding to CHD4 by BLI” value [3] does the source give for “{d-Arg}KKRR{ORN]RRR{β-Ala} (RKKRRXRRRA; d-Arg, ornithine, beta-Ala non-natural residues; Description of sequence: modified TAT amino acid sequence; SITE 1 d-arginine; MOD_RES 6 ORN; MOD_RES 10 beta-alanine)” here?
The value was “not mutant or TAT alone binds to CHD4”.
